The structures appear in SMILES notation.

One data set concerns Cytochrome P450. In words: Drug metabolism in human liver microsome S9 fraction assessed as CYP450-mediated metabolism by measuring compound remaining at 5 uM pretreated with NADPH and measured after 15 mins by UPLC-MS/MS analysis. The class given is ADME, microsomes. As to conditions: microsomes, 0.25 h, 5 µM. (In general: Liver microsomes are a subcellular fraction often used to study metabolism.)
Take `OC(Cn1cncn1)(Cn1cncn1)c1ccc(F)cc1F` [FLUCONAZOLE]: the Stability entry is “Stable”.

Tested on in another data set: not listed separately
In words: Therapeutic index, ratio EC50 for human MRC5 SV2 cells to EC50 for Trypanosoma cruzi Tulahuen CL2 intracellular amastigotes. The class given is toxicity, cell-based. As to conditions: read-out: Ratio EC50.
Take `Nc1ncnc2c1c(-c1ccc(Cl)c(Cl)c1)cn2[C@@H]1O[C@H](CO)C[C@H]1O`: the selectivity ratio was determined as 230.
Same read-out and setting: for `Nc1ncnc2c1c(-c1ccc(F)c(Cl)c1)cn2[C@@H]1O[C@H](CO)C[C@H]1O` the value was 150.
On the same count and under the same terms, next, `Nc1ncnc2c1c(C1=CCCCC1)cn2[C@@H]1O[C@H](CO)C[C@H]1O`: more than 2; `Cc1ccc(-c2cn([C@@H]3O[C@H](CO)C[C@H]3O)c3ncnc(N)c23)cc1Cl`: 66; `Nc1ncnc2c1c(-c1cc(Cl)cc(Cl)c1)cn2[C@@H]1O[C@H](CO)C[C@H]1O`: 55.
On the same count and under the same terms, next, `Cc1ccc(-c2cn([C@@H]3O[C@H](CO)C[C@H]3O)c3ncnc(N)c23)cc1`: 46.
On to `CCc1ccc(-c2cn([C@@H]3O[C@H](CO)C[C@H]3O)c3ncnc(N)c23)cc1`, for which the selectivity ratio was 18.
For `Nc1ncnc2c1c(-c1ccc(F)cc1)cn2[C@@H]1O[C@H](CO)C[C@H]1O`, the selectivity ratio is more than 100.
Same read-out and setting: for `Nc1ncnc2c1c(-c1ccccc1)cn2[C@@H]1O[C@H](CO)C[C@H]1O` the value was 24.
For `COc1ccc(-c2cn([C@@H]3O[C@H](CO)C[C@H]3O)c3ncnc(N)c23)cc1`, the selectivity ratio amounted to 10.
The same measure, in the same setting: for `Nc1ncnc2c1c(-c1ccc(OC(F)(F)F)cc1)cn2[C@@H]1O[C@H](CO)C[C@H]1O` the value was 29; for `Nc1ncnc2c1c(-c1ccc3ccccc3c1)cn2[C@@H]1O[C@H](CO)C[C@H]1O`, 7; for `Nc1ncnc2c1c(-c1ccc([N+](=O)[O-])cc1)cn2[C@@H]1O[C@H](CO)C[C@H]1O`, more than 53.

The next data set deals with Trypanosoma cruzi. In words: Antiparasitic activity against Trypanosoma cruzi Tulahuen CL2 intracellular amastigotes expressing beta-galactosidase infected in human MRC5 SV2 cells after 7 days by chlorophenol red beta-D-galactopyranoside-based spectrophotometric analysis. The class given is functional, organism-based. As to conditions: Tulahuen CL2, MRC-5 SV2, 168 h, read-out: EC50.
With `Nc1ncnc2c1c(-c1ccc(Cl)c(Cl)c1)cn2[C@@H]1O[C@H](CO)C[C@H]1O`, the 50% effective concentration (EC50) was determined as 0.059 µM.
On the same count and under the same terms, for `Nc1ncnc2c1c(-c1ccc(F)c(Cl)c1)cn2[C@@H]1O[C@H](CO)C[C@H]1O` the value was 0.3 µM.
In the case of `Nc1ncnc2c1c(C1=CCCCC1)cn2[C@@H]1O[C@H](CO)C[C@H]1O`, the 50% effective concentration (EC50) was 31.8 µM.
In the case of `Cc1ccc(-c2cn([C@@H]3O[C@H](CO)C[C@H]3O)c3ncnc(N)c23)cc1Cl`, the EC50 amounted to 0.27 µM.
The same measure, in the same setting: next, `Nc1ncnc2c1c(-c1cc(Cl)cc(Cl)c1)cn2[C@@H]1O[C@H](CO)C[C@H]1O`: 0.55 µM.
`Cc1ccc(-c2cn([C@@H]3O[C@H](CO)C[C@H]3O)c3ncnc(N)c23)cc1`: the half-maximal effective concentration (EC50) stood at 0.46 µM.
Still for that read-out and setting: for `CCc1ccc(-c2cn([C@@H]3O[C@H](CO)C[C@H]3O)c3ncnc(N)c23)cc1` the value was 1.04 µM.
The same measure, in the same setting: for `Nc1ncnc2c1c(-c1ccc(F)cc1)cn2[C@@H]1O[C@H](CO)C[C@H]1O` the value was 0.64 µM; for `Nc1ncnc2c1c(-c1ccccc1)cn2[C@@H]1O[C@H](CO)C[C@H]1O`, 2.57 µM; for `COc1ccc(-c2cn([C@@H]3O[C@H](CO)C[C@H]3O)c3ncnc(N)c23)cc1`, 2.38 µM.
Take `Nc1ncnc2c1c(-c1ccc(OC(F)(F)F)cc1)cn2[C@@H]1O[C@H](CO)C[C@H]1O`: the EC50 stood at 1.39 µM.
Same read-out and setting: for `Nc1ncnc2c1c(-c1ccc3ccccc3c1)cn2[C@@H]1O[C@H](CO)C[C@H]1O` the value was 0.72 µM.
Same read-out and setting: for `Nc1ncnc2c1c(-c1ccc([N+](=O)[O-])cc1)cn2[C@@H]1O[C@H](CO)C[C@H]1O` the value was 1.21 µM.

Tested on in the next data set: not listed separately
In words: Cytotoxicity against human MRC5 SV2 cells assessed as reduction in cell viability after 3 days resazurin-based fluorimetric assay. As to conditions: MRC-5 SV2, 72 h. A general note: The colour change of resazurin is a common sign of viable cells or microbes.
As for `Nc1ncnc2c1c(-c1ccc(Cl)c(Cl)c1)cn2[C@@H]1O[C@H](CO)C[C@H]1O`, the concentration for a half-maximal effect (EC50) is 13.6 µM.
Regarding `Nc1ncnc2c1c(-c1ccc(F)c(Cl)c1)cn2[C@@H]1O[C@H](CO)C[C@H]1O`, the EC50 was determined as 45.5 µM.
The same measure, in the same setting: for `Nc1ncnc2c1c(C1=CCCCC1)cn2[C@@H]1O[C@H](CO)C[C@H]1O` the value was more than 64 µM; for `Cc1ccc(-c2cn([C@@H]3O[C@H](CO)C[C@H]3O)c3ncnc(N)c23)cc1Cl`, 17.8 µM; for `Nc1ncnc2c1c(-c1cc(Cl)cc(Cl)c1)cn2[C@@H]1O[C@H](CO)C[C@H]1O`, 30.2 µM.
For the molecule `Cc1ccc(-c2cn([C@@H]3O[C@H](CO)C[C@H]3O)c3ncnc(N)c23)cc1`, the EC50 came to 21 µM.
Still for that read-out and setting: next, `CCc1ccc(-c2cn([C@@H]3O[C@H](CO)C[C@H]3O)c3ncnc(N)c23)cc1`: 18.4 µM; `Nc1ncnc2c1c(-c1ccc(F)cc1)cn2[C@@H]1O[C@H](CO)C[C@H]1O`: more than 64 µM.
Still for that read-out and setting: next, `Nc1ncnc2c1c(-c1ccccc1)cn2[C@@H]1O[C@H](CO)C[C@H]1O`: 61.8 µM; `COc1ccc(-c2cn([C@@H]3O[C@H](CO)C[C@H]3O)c3ncnc(N)c23)cc1`: 24.3 µM.
Same read-out and setting: for `Nc1ncnc2c1c(-c1ccc(OC(F)(F)F)cc1)cn2[C@@H]1O[C@H](CO)C[C@H]1O` the value was 40.4 µM; for `Nc1ncnc2c1c(-c1ccc3ccccc3c1)cn2[C@@H]1O[C@H](CO)C[C@H]1O`, 5 µM.
Consider `Nc1ncnc2c1c(-c1ccc([N+](=O)[O-])cc1)cn2[C@@H]1O[C@H](CO)C[C@H]1O`, for which the EC50 is more than 64 µM.

Tested on in a further data set: not listed separately
In words: Drug metabolism in mouse liver microsome S9 fraction assessed as CYP450-mediated metabolism by measuring compound remaining at 5 uM pretreated with NADPH and measured after 15 mins by UPLC-MS/MS analysis. The settings on record: microsomes, 0.25 h, 5 µM. The class given is ADME, microsomes.
In the case of `OC(Cn1cncn1)(Cn1cncn1)c1ccc(F)cc1F` [FLUCONAZOLE], the Stability entry is reported as “Stable”.

Tested on in another data set: not listed separately
In words: Drug metabolism in mouse liver microsome S9 fraction assessed as CYP450-mediated metabolism by measuring compound remaining at 5 uM pretreated with NADPH and measured after 30 mins by UPLC-MS/MS analysis. The class given is ADME, microsomes. The settings on record: microsomes, 0.5 h, 5 µM.
Turning to `OC(Cn1cncn1)(Cn1cncn1)c1ccc(F)cc1F` [FLUCONAZOLE], the Stability result was “Stable”.

Tested on in a further data set: not listed separately
In words: Drug metabolism in mouse liver microsome S9 fraction assessed as CYP450-mediated metabolism by measuring compound remaining at 5 uM pretreated with NADPH and measured after 60 mins by UPLC-MS/MS analysis. The class given is ADME, microsomes. The settings on record: microsomes, 1 h, 5 µM.
As to `OC(Cn1cncn1)(Cn1cncn1)c1ccc(F)cc1F` [FLUCONAZOLE], the Stability result is “Stable”.

Tested on in a further data set: not listed separately
In words: Drug metabolism in rat liver microsome S9 fraction assessed as CYP450-mediated metabolism by measuring compound remaining at 5 uM pretreated with NADPH and measured after 15 mins by UPLC-MS/MS analysis. The class given is ADME, microsomes. As to conditions: microsomes, 0.25 h, 5 µM.
As to `OC(Cn1cncn1)(Cn1cncn1)c1ccc(F)cc1F` [FLUCONAZOLE], the Stability entry is on record as “Stable”.

Tested on in a further data set: not listed separately
In words: Drug metabolism in rat liver microsome S9 fraction assessed as CYP450-mediated metabolism by measuring compound remaining at 5 uM pretreated with NADPH and measured after 30 mins by UPLC-MS/MS analysis. The settings on record: microsomes, 0.5 h, 5 µM. The format is ADME, microsomes.
For `OC(Cn1cncn1)(Cn1cncn1)c1ccc(F)cc1F` [FLUCONAZOLE], the Stability entry is “Stable”.

Tested on in a further data set: not listed separately
In words: Drug metabolism in rat liver microsome S9 fraction assessed as CYP450-mediated metabolism by measuring compound remaining at 5 uM pretreated with NADPH and measured after 60 mins by UPLC-MS/MS analysis. The class given is ADME, microsomes. As to conditions: microsomes, 1 h, 5 µM.
Take `OC(Cn1cncn1)(Cn1cncn1)c1ccc(F)cc1F` [FLUCONAZOLE]: the Stability entry is “Stable”.

Tested on in another data set: not listed separately
In words: Drug metabolism in dog liver microsome S9 fraction assessed as CYP450-mediated metabolism by measuring compound remaining at 5 uM pretreated with NADPH and measured after 15 mins by UPLC-MS/MS analysis. The format is ADME, microsomes, Canis lupus familiaris. The settings on record: microsomes, 0.25 h, 5 µM.
As for `OC(Cn1cncn1)(Cn1cncn1)c1ccc(F)cc1F` [FLUCONAZOLE], the Stability entry is recorded as “Stable”.

Tested on in a further data set: not listed separately
In words: Drug metabolism in dog liver microsome S9 fraction assessed as CYP450-mediated metabolism by measuring compound remaining at 5 uM pretreated with NADPH and measured after 30 mins by UPLC-MS/MS analysis. The settings on record: microsomes, 0.5 h, 5 µM. The class given is ADME, microsomes, Canis lupus familiaris.
With `OC(Cn1cncn1)(Cn1cncn1)c1ccc(F)cc1F` [FLUCONAZOLE], the Stability result is given as “Stable”.

Tested on in another data set: not listed separately
In words: Drug metabolism in dog liver microsome S9 fraction assessed as CYP450-mediated metabolism by measuring compound remaining at 5 uM pretreated with NADPH and measured after 60 mins by UPLC-MS/MS analysis. The class given is ADME, microsomes, Canis lupus familiaris. The settings on record: microsomes, 1 h, 5 µM.
Take `OC(Cn1cncn1)(Cn1cncn1)c1ccc(F)cc1F` [FLUCONAZOLE]: the Stability entry is “Stable”.

The subject of the next data set is Cytochrome P450. In words: Drug metabolism in human liver microsome S9 fraction assessed as CYP450-mediated metabolism by measuring compound remaining at 5 uM pretreated with NADPH and measured after 30 mins by UPLC-MS/MS analysis. The format is ADME, microsomes. The settings on record: microsomes, 0.5 h, 5 µM.
Consider `OC(Cn1cncn1)(Cn1cncn1)c1ccc(F)cc1F` [FLUCONAZOLE], for which the Stability entry is recorded as “Stable”.

Another data set has as its system Cytochrome P450. In words: Drug metabolism in human liver microsome S9 fraction assessed as CYP450-mediated metabolism by measuring compound remaining at 5 uM pretreated with NADPH and measured after 60 mins by UPLC-MS/MS analysis. The format is ADME, microsomes. The settings on record: microsomes, 1 h, 5 µM.
On to `OC(Cn1cncn1)(Cn1cncn1)c1ccc(F)cc1F` [FLUCONAZOLE], for which the Stability result is listed as “Stable”.

By EC50 is commonly meant the concentration at which the effect is half-maximal.

Values taken from ChEMBL document CHEMBL4382200, “Discovery of Novel 7-Aryl 7-Deazapurine 3'-Deoxy-ribofuranosyl Nucleosides with Potent Activity against Trypanosoma cruzi” (J Med Chem, 2018).
